Structures can show the parent of a compound that is named as a salt. Where two headings read alike, the source gives them in different places.
Legend:
Format in all cases: cell-based, human
Target C mRNA = experiment: Splicing RT-qPCR gene panel, Target C canonical junction (CJ) mRNA; conditions: Homo sapiens, Tables 4A/4B, read-out: Target C (IC50, decrease in CJ mRNA, gene panel)
Summary of the method: (§1)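 A673 or K562 cells treated 24 h at 37° C. with an 11-point 3-fold dilution series (top 10 uM, ≤0.25% DMSO). Lysates analysed by one-step RT-qPCR for canonical exon-exon junction transcripts, normalized to GAPDH, GUSB or PPIA and DMSO control (2^(−ΔΔCt)), then converted to percentage response.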

SMN2 mRNA = experiment: Splicing RT-qPCR gene panel, SMN2 canonical junction (CJ) mRNA; conditions: Homo sapiens, Tables 4A/4B, read-out: SMN2 (IC50, decrease in CJ mRNA, gene panel)
Summary of the method: as §1

HTT mRNA [1] = experiment: Splicing RT-qPCR gene panel, HTT canonical junction (CJ) mRNA; conditions: Homo sapiens, Tables 4A/4B, read-out: HTT (IC50, decrease in CJ mRNA, gene panel)
Summary of the method: as §1

MYB mRNA = experiment: Splicing RT-qPCR assay, MYB canonical (CJ) and alternative (AJ) junction mRNA; conditions: Homo sapiens; for AC50: read-out: MYB AJ (AC50, increase in alternative junction mRNA)
Summary of the method: (§2)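 Canonical (CJ) and alternative-exon (AJ) junction mRNAs quantified by one-step RT-qPCR in cell lysates, normalized to housekeeping PPIA for A673 and GAPDH or GUSB for K562. Cells were exposed 24 h at 37 °C to 11-point 3-fold compound series from 10 uM final, with DMSO at or below 0.25%.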

HTT mRNA [2] = experiment: Splicing RT-qPCR assay, HTT canonical (CJ) and alternative (AJ) junction mRNA; conditions: Homo sapiens, A673 or K562 cells, 24 hours compound treatment; for IC50: 24 h, read-out: HTT CJ (IC50, decrease in canonical junction mRNA); for AC50: read-out: HTT AJ (AC50, increase in alternative junction mRNA)
Summary of the method: as §2

[3] = 24 h, A673 or K562 cells, 24 hours compound treatment, RT-qPCR
[4] = 24 h, A673 or K562 cells, 24 hours compound treatment, RT-qPCR, read-out: MYB CJ (IC50, decrease in canonical junction mRNA)
[5] = Tables 4A/4B, canonical junction qPCR panel, read-out: MYB (IC50, decrease in CJ mRNA, gene panel)

| Compound | IC50 (Target C mRNA) [nM] | IC50 (SMN2 mRNA) [nM] | IC50 (HTT mRNA [1]) [nM] | IC50 (MYB mRNA; [4]) [nM] | IC50 (MYB mRNA; [5]) [nM] | IC50 (HTT mRNA [2]) [nM] | AC50 (MYB mRNA; [3]) [nM] | AC50 (HTT mRNA [2]) [nM] |
| --- | --- | --- | --- | --- | --- | --- | --- | --- |
| Cc1cn2cc(NC(=O)c3ccc(C4CC(C)(C)NC(C)(C)C4)c4cc(C)oc34)cc(F)c2n1 [Compound 271] | > 10000 | 100 to 1000 | > 10000 | 1000 to 10000 | 1000 to 10000 | > 10000 | 1000 to 10000 | > 10000 |
| Cc1cn2cc(NC(=O)c3ccc(N4CCC(N5CCCC5)C4)c4cn(C)nc34)cc(F)c2n1 (centres unmarked) [Compound 272] | 100 to 1000 | < 100 | 100 to 1000 | 100 to 1000 | 100 to 1000 | 100 to 1000 | < 100 | 100 to 1000 |
| Cc1cn2cc(NC(=O)c3ccc(N4CC(C)(C)NC(C)(C)C4)c4cn(C)nc34)cc(F)c2n1 [Compound 274] | > 10000 | < 100 | 1000 to 10000 | 100 to 1000 | 100 to 1000 | 1000 to 10000 | 100 to 1000 | > 10000 |
| Cc1cn2cc(NC(=O)c3ccc(N4CCC(N(C)C)C4)c4cn(C)nc34)cc(Cl)c2n1 (centres unmarked) [Compound 278] | 1000 to 10000 | < 100 | 1000 to 10000 | 100 to 1000 | 100 to 1000 | 1000 to 10000 | < 100 | 1000 to 10000 |
| Cc1cn2cc(-c3ccc(C(=O)NC4CCNCC4)c4nn(C)cc34)cc(F)c2n1 [Compound 280] | > 10000 | 1000 to 10000 | 1000 to 10000 | > 10000 | > 10000 | 1000 to 10000 | 1000 to 10000 | 1000 to 10000 |
| Cc1cn2nc(-c3ccc(C(=O)NC4CCNCC4)c4nn(C)cc34)cc(C)c2n1 [Compound 281] | 1000 to 10000 | 100 to 1000 | 1000 to 10000 | 1000 to 10000 | 1000 to 10000 | 1000 to 10000 | 1000 to 10000 | 1000 to 10000 |
| Cc1cn2nc(-c3ccc(C(=O)NC4CCNCC4)c4oc(C)cc34)cc(C)c2n1 [Compound 282] | > 10000 | 100 to 1000 | 1000 to 10000 | > 10000 | > 10000 | 1000 to 10000 | > 10000 | 1000 to 10000 |
| Cc1cn2nc(-c3ccc(C(=O)NC4CCNCC4)c4oc(C)cc34)cc(F)c2n1 [Compound 283] | > 10000 | 100 to 1000 | 1000 to 10000 | 1000 to 10000 | 1000 to 10000 | 1000 to 10000 | > 10000 | > 10000 |
| Cc1cn2cc(NC(=O)c3ccc(N4CCNCC4)c4c[nH]nc34)cc(Cl)c2n1 [Compound 286] | > 10000 | 100 to 1000 | > 10000 | 100 to 1000 | 100 to 1000 | > 10000 | 1000 to 10000 | > 10000 |
| CCn1cc2c(N3C[C@H]4CC[C@@H](C3)N4)ccc(C(=O)Nc3cc(F)c4nc(C)cn4c3)c2n1 [Compound 289, 4-[(1R,5S)-3,8-diazabicyclo[3.2.1]octan-3-yl]-2-ethyl-N-{8-fluoro-2-methylimidazo[1,2-a]pyridin-6-yl}indazole-7-carboxamide] | > 10000 | < 100 | 1000 to 10000 | 100 to 1000 | 100 to 1000 | 1000 to 10000 | 100 to 1000 | > 10000 |
| Cc1cn2cc(NC(=O)c3ccc(N4CCNCC4)c4cn(C5COC5)nc34)cc(F)c2n1 [Compound 295, N-{8-fluoro-2-methylimidazo[1,2-a]pyridin-6-yl}-2-(oxetan-3-yl)-4-(piperazin-1-yl)indazole-7-carboxamide] | > 10000 | < 100 | > 10000 | 100 to 1000 | 100 to 1000 | > 10000 | 100 to 1000 | 1000 to 10000 |
| Cc1cn2cc(NC(=O)c3ccc(N4CCC(NC5CC5)C4)c4cn(C)nc34)cc(F)c2n1 (centres unmarked) [Compound 296, 4-[3-(cyclopropylamino)pyrrolidin-1-yl]-N-{8-fluoro-2-methylimidazo[1,2-a]pyridin-6-yl}-2-methylindazole-7-carboxamide] | > 10000 | < 100 | > 10000 | < 100 | < 100 | > 10000 | < 100 | > 10000 |

Second part, led by results:

| IC50 (Target C mRNA) [nM] | IC50 (SMN2 mRNA) [nM] | IC50 (HTT mRNA [1]) [nM] | IC50 (MYB mRNA; [4]) [nM] | IC50 (MYB mRNA; [5]) [nM] | IC50 (HTT mRNA [2]) [nM] | Compound | AC50 (MYB mRNA; [3]) [nM] | AC50 (HTT mRNA [2]) [nM] |
| --- | --- | --- | --- | --- | --- | --- | --- | --- |
| > 10000 | < 100 | > 10000 | 100 to 1000 | 100 to 1000 | > 10000 | Cc1cn2cc(NC(=O)c3ccc(N4CCNCC4)c4cn(C)nc34)nc2c(C)n1 [Compound 273] | 100 to 1000 | > 10000 |
| > 10000 | < 100 | 1000 to 10000 | 100 to 1000 | 100 to 1000 | 1000 to 10000 | Cc1cn2cc(NC(=O)c3ccc(N4CCNCC4)c4cn(C)nc34)cc(C(F)(F)F)c2n1 [Compound 275, 2-methyl-N-[2-methyl-8-(trifluoromethyl)imidazo[1,2-a]pyridin-6-yl]-4-(piperazin-1-yl) indazole-7-carboxamide] | < 100 | 1000 to 10000 |
| > 10000 | < 100 | > 10000 | 100 to 1000 | 100 to 1000 | > 10000 | Cc1cn2cc(NC(=O)c3ccc(N4CCNCC4)c4cn(C(C)C)nc34)cc(F)c2n1 [Compound 290, N-{8-fluoro-2-methylimidazo[1,2-a]pyridin-6-yl}-2-isopropyl-4-(piperazin-1-yl)indazole-7-carboxamide] | 100 to 1000 | > 10000 |
| 1000 to 10000 | < 100 | 1000 to 10000 | 100 to 1000 | 100 to 1000 | 1000 to 10000 | Cc1cn2cc(NC(=O)c3ccc(N4CCNCC4)c4cn(CCO)nc34)cc(F)c2n1 [Compound 291, N-{8-fluoro-2-methylimidazo[1,2-a]pyridin-6-yl}-2-(2-hydroxyethyl)-4-(piperazin-1-yl)indazole-7-carboxamide hydrochloride] | 100 to 1000 | 1000 to 10000 |
| 1000 to 10000 | < 100 | 1000 to 10000 | < 100 | < 100 | 1000 to 10000 | COCCn1cc2c(N3CCNCC3)ccc(C(=O)Nc3cc(F)c4nc(C)cn4c3)c2n1 [Compound 292, N-{8-fluoro-2-methylimidazo[1,2-a]pyridin-6-yl}-2-(2-methoxyethyl)-4-(piperazin-1-yl)indazole-7-carboxamide hydrochloride] | < 100 | 1000 to 10000 |
| > 10000 | < 100 | 1000 to 10000 | < 100 | < 100 | 1000 to 10000 | Cc1cn2cc(NC(=O)c3ccc(N4CCNCC4)c4cn(C)nc34)nc(C)c2n1 [Compound 293, N-{2,8-dimethylimidazo[1,2-a]pyrazin-6-yl}-2-methyl-4-(piperazin-1-yl)indazole-7-carboxamide] | < 100 | 100 to 1000 |
| > 10000 | < 100 | 100 to 1000 | < 100 | < 100 | 100 to 1000 | Cc1cn2cc(NC(=O)c3ccc(N4CCNCC4)c4cn(C5CC5)nc34)cc(F)c2n1 [Compound 294, 2-cyclopropyl-N-{8-fluoro-2-methylimidazo[1,2-a]pyridin-6-yl}-4-(piperazin-1-yl) indazole-7-carboxamide] | < 100 | 1000 to 10000 |
